Assays:
[1] = system: parental IGR-CaP1 cells; assay: WST1 cell proliferation assay, cytotoxic effect of docetaxel, parental cells; format: cell-based, human; conditions: docetaxel 1.25 nM to 50 nM, 72 h
Description: (§1) The data represent the mean of three different experiments, the error bars represent the SEM.
(§2) Several clonally-derived cells were obtained from the parental IGR-CaP1 cells by limit dilutions.

[2] = system: 3A11 clone (clonally-derived IGR-CaP1 cells); assay: WST1 cell proliferation assay, cytotoxic effect of docetaxel, clone 3A11; format: cell-based, human
Description: as §1, §2

[3] = system: 3B1 clone (clonally-derived IGR-CaP1 cells); assay: WST1 cell proliferation assay, cytotoxic effect of docetaxel, clone 3B1; format: cell-based, human
Description: as §1, §2

[4] = system: breast cancer metastatic tumours; conditions: cited from earlier work
[5] = system: patients treated with docetaxel; conditions: from the beginning or in a secondary way; cited from earlier work
[6] = system: docetaxel resistant cells; conditions: cited from earlier work

SMILES	cell proliferation (WST1) [1]	effect on proliferation compared to parental IGR-CaP1 cells ([2]; 3A11 clone vs parental, p<0.001)	cell proliferation (WST1) ([2]; 3A11 clone, docetaxel 1.25 nM to 50 nM, 72 h)	effect on proliferation compared to parental IGR-CaP1 cells ([3]; 3B1 clone vs parental, p<0.001)	cell proliferation (WST1) ([3]; 3B1 clone, docetaxel 1.25 nM to 50 nM, 72 h)	metastatic tumours that respond [4]	patients who develop a resistance to the chemotherapy [5]	apoptosis [6]	expression of clusterin [6]
CC(=O)O[C@@]12CO[C@@H]1C[C@H](O)[C@@]1(C)C(=O)[C@H](O)C3=C(C)[C@@H](OC(=O)[C@H](O)[C@@H](NC(=O)OC(C)(C)C)c4ccccc4)C[C@@](O)([C@@H](OC(=O)c4ccccc4)[C@H]21)C3(C)C [docetaxel]	decreased cell proliferation in a dose-dependent manner	significantly lower extent	decreased cell proliferation in a dose-dependent manner	significantly lower extent	decreased cell proliferation in a dose-dependent manner	30 to 50%	almost half of the patients	–	–
Oc1ccc(C=Cc2cc(O)cc(O)c2)cc1 [resveratrol]	–	–	–	–	–	–	–	increase of apoptosis	decreased expression of clusterin

Reference: US20110177970A1, “METHODS FOR PREDICTING OR MONITORING WHETHER A PATIENT AFFECTED BY A CANCER IS RESPONSIVE TO A TREATMENT WITH A MOLECULE OF THE TAXOID FAMILY” (Inserm (Institut National de la Sante et de la Recherche …, priority 2008, published 2011)
